From patent US4401660A, “Ester derivatives of 5-O-mycaminosyl tylonolide and method of using same” (Eli Lilly and Company, priority 1981, dated 1983)
Where two headings read alike, the source gives them in different places.

Experiments:
[1] = system: Staphylococcus aureus X400; test: MIC, standard agar-dilution assay (Table II); type: cell-based; set-up: unit not given here; conditions: Staphylococcus aureus X400, methicillin-resistant strain
Experimental: (§1) The MIC's in Table II were determined by standard agar-dilution assays. The MIC's in Table III were obtained using a conventional broth-dilution microtiter test.

[2] = system: Streptococcus pneumoniae Park I; test: MIC, standard agar-dilution assay (Table II); type: cell-based; set-up: unit not given here
Experimental: as §1

[3] = system: Staphylococcus aureus V41; test: MIC, standard agar-dilution assay (Table II); type: cell-based; set-up: unit not given here; conditions: Staphylococcus aureus V41, penicillin-resistant strain
Experimental: as §1

[4] = system: Staphylococcus epidermidis EPI1; test: MIC, standard agar-dilution assay (Table II); type: cell-based; set-up: unit not given here
Experimental: as §1

[5] = system: Streptococcus pyogenes C203; test: MIC, standard agar-dilution assay (Table II); type: cell-based; set-up: unit not given here
Experimental: as §1

[6] = system: Staphylococcus aureus X1.1; test: MIC, standard agar-dilution assay (Table II); type: cell-based; set-up: unit not given here
Experimental: as §1

[7] = system: Streptococcus Group D X66; test: MIC, standard agar-dilution assay (Table II); type: cell-based; set-up: unit not given here
Experimental: as §1

[8] = system: Staphylococcus epidermidis EPI2; test: MIC, standard agar-dilution assay (Table II); type: cell-based; set-up: unit not given here
Experimental: as §1

[9] = system: Streptococcus Group D 9960; test: MIC, standard agar-dilution assay (Table II); type: cell-based; set-up: unit not given here
Experimental: as §1

[10] = system: Staphylococcus aureus S13E; test: MIC, standard agar-dilution assay (Table II); type: cell-based; set-up: unit not given here
Experimental: as §1

[11] = system: Mycoplasma gallisepticum; test: MIC, broth-dilution microtiter test (Table III); type: cell-based; set-up: unit not given here
Experimental: as §1

[12] = system: Pasteurella multocida 22A; test: MIC, broth-dilution microtiter test (Table III); type: cell-based; set-up: unit not given here
Experimental: as §1

[13] = system: Mycoplasma synoviae; test: MIC, broth-dilution microtiter test (Table III); type: cell-based; set-up: unit not given here
Experimental: as §1

[14] = system: Pasteurella multocida 68C; test: MIC, broth-dilution microtiter test (Table III); type: cell-based; set-up: unit not given here
Experimental: as §1

[15] = system: Pasteurella haemolytica 23C; test: MIC, broth-dilution microtiter test (Table III); type: cell-based; set-up: unit not given here
Experimental: as §1

[16] = system: Pasteurella multocida 17E; test: MIC, broth-dilution microtiter test (Table III); type: cell-based; set-up: unit not given here; conditions: bovine isolate
Experimental: as §1

[17] = system: Pasteurella multocida 40G; test: MIC, broth-dilution microtiter test (Table III); type: cell-based; set-up: unit not given here
Experimental: as §1

[18] = system: Pasteurella haemolytica 41D; test: MIC, broth-dilution microtiter test (Table III); type: cell-based; set-up: unit not given here
Experimental: as §1

[19] = system: Streptococcus sp. 80; test: MIC, broth-dilution microtiter test (Table III); type: cell-based; set-up: unit not given here
Experimental: as §1

[20] = system: Mycoplasma hyorhinis; test: MIC, broth-dilution microtiter test (Table III); type: cell-based; set-up: unit not given here
Experimental: as §1

[21] = system: Pasteurella multocida 60A; test: MIC, broth-dilution microtiter test (Table III); type: cell-based; set-up: unit not given here; conditions: avian isolate
Experimental: as §1

[22] = system: Pasteurella haemolytica 22C; test: MIC, broth-dilution microtiter test (Table III); type: cell-based; set-up: unit not given here
Experimental: as §1

[23] = system: Staphylococcus aureus; test: MIC, broth-dilution microtiter test (Table III); type: cell-based; set-up: unit not given here
Experimental: as §1

[24] = system: Pasteurella multocida; test: Treatment of Pasteurella infections in chicks (Table V); type: in vivo, one-day-old chicks; conditions: 30 mg/kg by subcutaneous injection one and four hours post challenge; for mortality at 30 mg/kg: Pasteurella multocida, sc, 4 h, read-out: Deaths in Treated Chicks/Number Treated (converted)
Procedure, shortened: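 One-day-old chicks challenged subcutaneously with avian P. multocida (0.1 ml of 10^-3 dilution of 20-hour tryptose broth culture). Esters given at 30 mg/kg subcutaneously at 1 and 4 hours post challenge. Untreated infected controls, ten per group.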

[25] = system: Streptococcus pyogenes C203; test: ED50 in mice with experimental infections (Table IV); type: in vivo; conditions: doses given 1 and 4 hours postinfection; for ED50: Streptococcus pyogenes
Procedure, shortened: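 Mice with experimental infections received test compound twice, at 1 and 4 h postinfection. ED50 is the dose in mg/kg (per administration, ×2) protecting 50% of animals.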

[26] = C203, oral, read-out: ED50, Oral
[27] = C203, sc, subcutaneous, read-out: ED50, Subcutaneous

Compound	minimal inhibitory concentration (MIC) [1]	minimal inhibitory concentration (MIC) [2]	minimal inhibitory concentration (MIC) [3]	minimal inhibitory concentration (MIC) [4]	minimal inhibitory concentration (MIC) [5]	minimal inhibitory concentration (MIC) [6]	minimal inhibitory concentration (MIC) [7]	minimal inhibitory concentration (MIC) [8]	minimal inhibitory concentration (MIC) [9]	minimal inhibitory concentration (MIC) [10]	minimal inhibitory concentration (MIC) [11]	minimal inhibitory concentration (MIC) [12]	minimal inhibitory concentration (MIC) [13]	minimal inhibitory concentration (MIC) [14]	minimal inhibitory concentration (MIC) [15]	minimal inhibitory concentration (MIC) [16]	minimal inhibitory concentration (MIC) [17]	minimal inhibitory concentration (MIC) [18]	minimal inhibitory concentration (MIC) [19]	minimal inhibitory concentration (MIC) [20]	also measured
CCC1OC(=O)CC(O)C(C)C(OC2OC(C)C(O)C(N(C)C)C2O)C(CC=O)CC(C)C(=O)C=CC(C)=CC1COC(=O)[C@H](O)c1ccccc1 (stereo partly drawn) [Compound 42, 23-O-Mandeloyl-OMT]	0.5	0.06	0.5	0.25	0.125	0.25	0.25	0.5	0.25	0.25	0.39	6.25	0.195	3.12	6.25	6.25	1.56	3.12	0.39	12.5	minimal inhibitory concentration (MIC) [21]: 3.12; minimal inhibitory concentration (MIC) [22]: 6.25; minimal inhibitory concentration (MIC) [23]: 0.78; mortality at 30 mg/kg [24]: 0%; ED50 [25, 26]: > 150 mg/kg; ED50 [25, 27]: 11 mg/kg
CCC1OC(=O)CC(O)C(C)C(OC2OC(C)C(O)C(N(C)C)C2O)C(CC=O)CC(C)C(=O)C=CC(C)=CC1COC(=O)Cc1cccnc1 (stereo not drawn) [Compound 44, 23-O-(3-Pyridylacetyl)-OMT]	0.25	0.03	0.25	0.125	0.015	0.25	0.125	0.125	0.125	0.25	0.78	3.12	< 0.05	3.12	6.25	3.12	3.12	6.25	0.39	0.78	minimal inhibitory concentration (MIC) [21]: 0.78; minimal inhibitory concentration (MIC) [22]: 3.12; minimal inhibitory concentration (MIC) [23]: 0.39; mortality at 30 mg/kg [24]: 0%; ED50 [25, 26]: 150 mg/kg; ED50 [25, 27]: 13 mg/kg
CCC1OC(=O)CC(O)C(C)C(OC2OC(C)C(O)C(N(C)C)C2O)C(CC=O)CC(C)C(=O)C=CC(C)=CC1COP(=O)(Oc1ccccc1)Oc1ccccc1 (stereo not drawn) [Compound 48, 23-O-(Diphenylphosphoryl)-OMT]	0.25	0.03	0.25	0.25	0.125	0.25	0.25	0.25	0.25	0.25	0.78	6.25	0.78	6.25	12.5	6.25	6.25	6.25	0.195	0.78	minimal inhibitory concentration (MIC) [21]: 6.25; minimal inhibitory concentration (MIC) [22]: 6.25; minimal inhibitory concentration (MIC) [23]: 0.39; Deaths in Treated Chicks/Number Treated [24]: 10/10; ED50, Oral ([25]; oral): > 150 mg/kg × 2; ED50, Subcutaneous ([25]; subcutaneous): > 30 mg/kg × 2
